We go through eleven sequences from US20080311126A1, “Antisense Oligonucleotides Directed to Ribonucleotide Reducatase R2 and Uses Thereof in Combination Therapies for the Treatment of Cancer” (Genesense Technologies, Inc, priority 2004, published 2008).

Common to all, as to assay: Relative colony forming efficiency (Example 17, Table 13)
Holding throughout (type): cell-based, human

Series [1] deals with MDA PaCa-2 pancreatic cell carcinoma. The following applies: MIA PaCa-2 pancreatic cell carcinoma; averages of 2-8 determinations. How it is done: (§1) Colony forming efficiency was determined using standard protocols. […] The test oligonucleotides were added to cell cultures in the presence of 2.5 μg of DOTMA/DOPE (Lipofectin; Life Technologies, Inc.) for four hours. The oligonucleotide was tested at 0.2 μM unless otherwise indicated. Controls were the cultures treated with lipofectin but without the oligonucleotide. […] Surviving cells were visualized by methylene blue staining, and colonies were scored. In some experiments cell aliquots were removed from the culture and viability was determined using the trypan blue exclusion test. Results were analyzed as percent of surviving cells compared to control cells. To test the antisense effects of many of these sequences as phosphorthioate deoxyribonucleotides, they were examined in relative colony forming experiments conducted as described in Example 16 with a series of human tumour cell lines. The results (shown as % inhibition of colony forming ability) obtained with cancer cells derived from the bladder, breast, lung, colon, pancreas, prostate, liver and cervix, are shown in Table 13. The specific cell lines employed are as follows: […]

Series [2] concerns HCT116 colon cell carcinoma. As to conditions: averages of 2-8 determinations. How it is done:
as §1

Another series relates to A549 lung cell carcinoma. As to conditions: averages of 2-8 determinations. On the procedure: as §1
For series [3], the system named is MDA-MB-231 breast cell adenocarcinoma. As to conditions: averages of 2-8 determinations. How it is done:
as §1

Series [4] deals with PC-3 prostrate cell adenocarcinoma. The following applies: averages of 2-8 determinations. How it is done:
as §1

The test system of series [5] is T24 bladder cell carcinoma. As to conditions: averages of 2-8 determinations. On the procedure: as §1
In series [6] the test system is HepG2 hepatocellular carcinoma. The following applies: averages of 2-8 determinations. How it is done: as §1

Oligonucleotides are written 5' to 3', each unit as a sugar letter and its base; * is a phosphorothioate linkage, no mark a phosphodiester; rarer units and linkages stand in square brackets, end groups in braces. Plain capitals give the bases only. d = 2'-deoxy (DNA)

As to “GACATCACTCCCATCCTCTG (antisense dG*dA*dC*dA*dT*dC*dA*dC*dT*dC*dC*dC*dA*dT*dC*dC*dT*dC*dT*dG) [AS-II-1302-20]”, the “Reduced relative colony forming efficiency, MIA PaCa-2 (% inhibition of colony forming ability)” value in series [1] was determined as 23.86%. Besides, the “Reduced relative colony forming efficiency, HCT116 (% inhibition of colony forming ability)” value in series [2] turned out to be 71.98%. For the same sequence, the “Reduced relative colony forming efficiency, A549 (% inhibition of colony forming ability)” value in the series with A549 lung cell carcinoma was determined as 93.17%. Besides, the “Reduced relative colony forming efficiency, MDA-MB-231 (% inhibition of colony forming ability)” value in series [3] came out at 92.2%. Further, in series [4], the “Reduced relative colony forming efficiency, PC-3 (% inhibition of colony forming ability)” value was 79.01%. In addition, in series [5], the “Reduced relative colony forming efficiency, T24 (% inhibition of colony forming ability)” value turned out to be 70.56%.
For the sequence “ACCCTTCCCATTGGCTGCGC (antisense dA*dC*dC*dC*dT*dT*dC*dC*dC*dA*dT*dT*dG*dG*dC*dT*dG*dC*dG*dC) [AS-II-6-20]”, the “Reduced relative colony forming efficiency, MIA PaCa-2 (% inhibition of colony forming ability)” value in series [1] is 95.15%. For the same sequence, the “Reduced relative colony forming efficiency, MDA-MB-231 (% inhibition of colony forming ability)” value in series [3] amounted to 85.4%. Moreover, in series [4], the “Reduced relative colony forming efficiency, PC-3 (% inhibition of colony forming ability)” value was 59.21%. Besides, the “Reduced relative colony forming efficiency, T24 (% inhibition of colony forming ability)” value in series [5] is listed as 73.55%. Moreover, the “Reduced relative colony forming efficiency, HepG2 (% inhibition of colony forming ability)” value in series [6] turned out to be 97.89%.
Regarding “GAGAAATAAAATGAAACGGC (antisense dG*dA*dG*dA*dA*dA*dT*dA*dA*dA*dA*dT*dG*dA*dA*dA*dC*dG*dG*dC) [AS-II-2164-20]”, the “Reduced relative colony forming efficiency, MIA PaCa-2 (% inhibition of colony forming ability)” value in series [1] stood at 89.36%. Moreover, the “Reduced relative colony forming efficiency, HCT116 (% inhibition of colony forming ability)” value in series [2] came to 50.08%. Besides, in the series with A549 lung cell carcinoma, the “Reduced relative colony forming efficiency, A549 (% inhibition of colony forming ability)” value is reported as 91.15%. Moreover, the “Reduced relative colony forming efficiency, MDA-MB-231 (% inhibition of colony forming ability)” value in series [3] was determined as 69.03%. Moreover, the “Reduced relative colony forming efficiency, PC-3 (% inhibition of colony forming ability)” value in series [4] stood at 83.36%. In addition, in series [5], the “Reduced relative colony forming efficiency, T24 (% inhibition of colony forming ability)” value stood at 61.84%. For the same sequence, in series [6], the “Reduced relative colony forming efficiency, HepG2 (% inhibition of colony forming ability)” value is 93.07%.
In the case of “ATGGAAAAAAAAAATCAGCC (antisense dA*dT*dG*dG*dA*dA*dA*dA*dA*dA*dA*dA*dA*dA*dT*dC*dA*dG*dC*dC) [AS-II-1390-20]”, the “Reduced relative colony forming efficiency, MIA PaCa-2 (% inhibition of colony forming ability)” value in series [1] is 82.77%. Moreover, the “Reduced relative colony forming efficiency, HCT116 (% inhibition of colony forming ability)” value in series [2] came out at 62.18%. The “Reduced relative colony forming efficiency, A549 (% inhibition of colony forming ability)” value in the series with A549 lung cell carcinoma is listed as 88.31%. For the same sequence, the “Reduced relative colony forming efficiency, MDA-MB-231 (% inhibition of colony forming ability)” value in series [3] is recorded as 66.89%. The “Reduced relative colony forming efficiency, PC-3 (% inhibition of colony forming ability)” value in series [4] came out at 76.76%. The “Reduced relative colony forming efficiency, T24 (% inhibition of colony forming ability)” value in series [5] was 61.13%. Moreover, the “Reduced relative colony forming efficiency, HepG2 (% inhibition of colony forming ability)” value in series [6] was found to be 90.21%.
With “CACACAACCTACTTACACCA (antisense dC*dA*dC*dA*dC*dA*dA*dC*dC*dT*dA*dC*dT*dT*dA*dC*dA*dC*dC*dA) [AS-II-2372-20]”, in series [1], the “Reduced relative colony forming efficiency, MIA PaCa-2 (% inhibition of colony forming ability)” value is 94.36%. Also, in series [2], the “Reduced relative colony forming efficiency, HCT116 (% inhibition of colony forming ability)” value was 64.7%. Moreover, in the series with A549 lung cell carcinoma, the “Reduced relative colony forming efficiency, A549 (% inhibition of colony forming ability)” value was determined as 96.41%. The “Reduced relative colony forming efficiency, MDA-MB-231 (% inhibition of colony forming ability)” value in series [3] is recorded as 90.09%. Also, the “Reduced relative colony forming efficiency, PC-3 (% inhibition of colony forming ability)” value in series [4] is recorded as 86.06%. In series [5], the “Reduced relative colony forming efficiency, T24 (% inhibition of colony forming ability)” value stood at 61.13%.
Consider “GCACATCTTCAGTTCATTTA (antisense dG*dC*dA*dC*dA*dT*dC*dT*dT*dC*dA*dG*dT*dT*dC*dA*dT*dT*dT*dA) [AS-II-1362-20]”, for which the “Reduced relative colony forming efficiency, MIA PaCa-2 (% inhibition of colony forming ability)” value in series [1] is given as 44.14%. In addition, the “Reduced relative colony forming efficiency, HCT116 (% inhibition of colony forming ability)” value in series [2] is on record as 78.47%. Further, the “Reduced relative colony forming efficiency, A549 (% inhibition of colony forming ability)” value in the series on A549 lung cell carcinoma was 83.9%. Besides, the “Reduced relative colony forming efficiency, MDA-MB-231 (% inhibition of colony forming ability)” value in series [3] is listed as 70.22%. Also, in series [4], the “Reduced relative colony forming efficiency, PC-3 (% inhibition of colony forming ability)” value came out at 77.38%. In series [6], the “Reduced relative colony forming efficiency, HepG2 (% inhibition of colony forming ability)” value worked out at 80.41%.
Regarding “GCCACAGGATAAAAACACAA (antisense dG*dC*dC*dA*dC*dA*dG*dG*dA*dT*dA*dA*dA*dA*dA*dC*dA*dC*dA*dA) [AS-II-2009-20]”, the “Reduced relative colony forming efficiency, MIA PaCa-2 (% inhibition of colony forming ability)” value in series [1] worked out at 93.74%. Besides, in series [2], the “Reduced relative colony forming efficiency, HCT116 (% inhibition of colony forming ability)” value worked out at 69.92%. Further, the “Reduced relative colony forming efficiency, A549 (% inhibition of colony forming ability)” value with A549 lung cell carcinoma amounted to 93.32%. Also, the “Reduced relative colony forming efficiency, MDA-MB-231 (% inhibition of colony forming ability)” value in series [3] is recorded as 96.25%. In addition, the “Reduced relative colony forming efficiency, PC-3 (% inhibition of colony forming ability)” value in series [4] is on record as 83.36%. For the same sequence, the “Reduced relative colony forming efficiency, T24 (% inhibition of colony forming ability)” value in series [5] is listed as 61.84%. The “Reduced relative colony forming efficiency, HepG2 (% inhibition of colony forming ability)” value in series [6] is on record as 96.99%.
In the case of “CGGGTCCGTGATGGGCGCGA (antisense dC*dG*dG*dG*dT*dC*dC*dG*dT*dG*dA*dT*dG*dG*dG*dC*dG*dC*dG*dA) [AS-II-217-20]”, the “Reduced relative colony forming efficiency, MIA PaCa-2 (% inhibition of colony forming ability)” value in series [1] amounted to 87.38%. In series [2], the “Reduced relative colony forming efficiency, HCT116 (% inhibition of colony forming ability)” value was 61.85%. For the same sequence, in series [3], the “Reduced relative colony forming efficiency, MDA-MB-231 (% inhibition of colony forming ability)” value was 52.7%. For the same sequence, the “Reduced relative colony forming efficiency, PC-3 (% inhibition of colony forming ability)” value in series [4] amounted to 87.41%. In series [5], the “Reduced relative colony forming efficiency, T24 (% inhibition of colony forming ability)” value was 65.02%. In series [6], the “Reduced relative colony forming efficiency, HepG2 (% inhibition of colony forming ability)” value is recorded as 99.55%.
As to “TTAGTGGTCAGGAGAATGTA (antisense dT*dT*dA*dG*dT*dG*dG*dT*dC*dA*dG*dG*dA*dG*dA*dA*dT*dG*dT*dA) [AS-II-1819-20]”, in series [1], the “Reduced relative colony forming efficiency, MIA PaCa-2 (% inhibition of colony forming ability)” value is 20.02%. Besides, the “Reduced relative colony forming efficiency, MDA-MB-231 (% inhibition of colony forming ability)” value in series [3] is given as 90.68%. In addition, in series [4], the “Reduced relative colony forming efficiency, PC-3 (% inhibition of colony forming ability)” value was found to be 85.46%. Moreover, the “Reduced relative colony forming efficiency, T24 (% inhibition of colony forming ability)” value in series [5] is given as 53.74%. Besides, in series [6], the “Reduced relative colony forming efficiency, HepG2 (% inhibition of colony forming ability)” value is listed as 83.89%.
The like results for “TGCCTCCGACCCTTCCCATT (antisense dT*dG*dC*dC*dT*dC*dC*dG*dA*dC*dC*dC*dT*dT*dC*dC*dC*dA*dT*dT) [AS-II-14-20]” were, in that order, 47.93%, 91.24%, 92.76%, 77.59% and 88.4%.
For the sequence “GGGCACATCTTCAGTTCATT (antisense dG*dG*dG*dC*dA*dC*dA*dT*dC*dT*dT*dC*dA*dG*dT*dT*dC*dA*dT*dT) [AS-II-1364-20]”, in series [1], the “Reduced relative colony forming efficiency, MIA PaCa-2 (% inhibition of colony forming ability)” value was 59.34%. Besides, in series [2], the “Reduced relative colony forming efficiency, HCT116 (% inhibition of colony forming ability)” value was found to be 77.29%. Besides, the “Reduced relative colony forming efficiency, A549 (% inhibition of colony forming ability)” value with A549 lung cell carcinoma came out at 95.59%. Besides, the “Reduced relative colony forming efficiency, MDA-MB-231 (% inhibition of colony forming ability)” value in series [3] is 93.87%. Also, the “Reduced relative colony forming efficiency, PC-3 (% inhibition of colony forming ability)” value in series [4] is reported as 79.01%. Moreover, the “Reduced relative colony forming efficiency, T24 (% inhibition of colony forming ability)” value in series [5] worked out at 66.59%.
